Source: patent publication US20250228865A1, “COMPOUNDS FOR ENHANCING READ THROUGH OF GENES CONTAINING PREMATURE TERMINATION CODONS AND METHODS FOR MAKING AND USING THE SAME” (Sanofi US Services Inc., priority 2022, published 2025)
pEC50: −log10 of the molar value.

Tests used:
[1] = system: recombinant human CFTR carrying the premature stop codon (PTC) mutation G542X; assay: CFTR-PTC mutant translation readthrough, Nanoluc tagged CFTR luminescence (G542X cell line); type: cell-based; conditions: in combination with G418, G542X cell line; for CFTR G542X ACTIVITY Fold 10 μM G-418: fold over 10 μM G-418; for pEC50: 16HBE cells
Procedure, shortened: (§1)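 Readthrough is the 48 h compound-induced luminescence increase scaled to that of maximal G418 (125-250 μM). Compounds run from 50 μM final in 2-fold steps, ±10 μM G418, on 16HBE lines carrying Nanoluc-tagged CFTR G542X (extracellular loop 4 tag) or R1162X (C-terminal tag), with 3 μM VX-809 present.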

[2] = system: recombinant human CFTR carrying the premature stop codon (PTC) mutation R1162X; assay: CFTR-PTC mutant translation readthrough, Nanoluc tagged CFTR luminescence (R1162X cell line); type: cell-based; conditions: for CFTR R1162X ACTIVITY Fold 10 μM G-418: fold over 10 μM G-418, in combination with G418; for pEC50: in combination with G418, 16HBE cells, read-out: CFTR R1162X ACTIVITY EC50
Procedure, shortened: as §1

Structure (SMILES) | CFTR G542X ACTIVITY Fold 10 μM G-418 [1] | pEC50 [1] | CFTR R1162X ACTIVITY Fold 10 μM G-418 [2] | pEC50 [2]
OCCN1CCN(c2ncc(OCc3c(Cl)cccc3Cl)cn2)CC1 [2-[4-[5-[(2,6-dichlorophenyl)methoxy]pyrimidin-2-yl]piperazin-1-yl]ethanol] | A′ (A′ = ≥10X) | 5.00 to 6.00 | A′ (A′ = ≥10X) | 5.00 to 6.00
CC1(C)NC(=O)N(c2ccc(OCc3c(Cl)cccc3C(F)(F)F)cc2)C1=O | A′ (A′ = ≥10X) | > 6.00 | A′ (A′ = ≥10X) | 5.00 to 6.00
OCc1ccn(-c2ncc(OCc3c(Cl)cccc3Cl)cn2)n1 [[1-[5-[(2,6-dichlorophenyl)methoxy]pyrimidin-2-yl]pyrazol-3-yl]methanol] | A′ (A′ = ≥10X) | > 6.00 | A′ (A′ = ≥10X) | 5.00 to 6.00
COC(=O)c1ncn(-c2ccc(OCc3c(C)cccc3C(F)(F)F)cc2)n1 | A′ (A′ = ≥10X) | > 6.00 | A′ (A′ = ≥10X) | 5.00 to 6.00
Clc1cccc(Cl)c1COc1ccc(-n2cncn2)cc1 [1-[4-[(2,6-dichlorophenyl)methoxy]phenyl]-1,2,4-triazole] | A′ (A′ = ≥10X) | 5.00 to 6.00 | A′ (A′ = ≥10X) | 5.00 to 6.00
Cc1cccc(C(F)(F)F)c1COc1cnc(N2CCC(N)CC2)nc1 | A′ (A′ = ≥10X) | > 6.00 | A′ (A′ = ≥10X) | 5.00 to 6.00
OC[C@@H]1CN(c2ncc(OCc3c(Cl)cccc3Cl)cn2)C[C@@H](C(F)(F)F)O1 (racemic) | A′ (A′ = ≥10X) | > 6.00 | B′ (B′ = ≥5X to <10X) | 5.00 to 6.00
O=C1OC(CO)CN1c1ccc(OCc2c(Cl)cccc2OC(F)F)cc1 (stereo not shown) | C′ (C′ = <5X) | 5.00 to 6.00 | B′ (B′ = ≥5X to <10X) | < 5.00
OCc1cnn(-c2ccc(OCc3c(Cl)cccc3Cl)cc2)c1 [[1-[4-[(2,6-dichlorophenyl)methoxy]phenyl]pyrazol-4-yl]methanol] | A′ (A′ = ≥10X) | 5.00 to 6.00 | A′ (A′ = ≥10X) | 5.00 to 6.00
OCc1cc(-c2ncc(OCc3c(Cl)cccc3C(F)(F)F)cn2)no1 | A′ (A′ = ≥10X) | > 6.00 | A′ (A′ = ≥10X) | 5.00 to 6.00
Cc1cccc(C)c1COc1ccc(N2CC(CO)OC2=O)cc1 (stereo not shown) [3-[4-[(2,6-dimethylphenyl)methoxy]phenyl]-5-(hydroxymethyl)oxazolidin-2-one] | B′ (B′ = ≥5X to <10X) | 5.00 to 6.00 | A′ (A′ = ≥10X) | < 5.00
NC(=O)C1CCN(c2ncc(OCc3c(Cl)cccc3Cl)cn2)C1 (stereo not shown) [1-[5-[(2,6-dichlorophenyl)methoxy]pyrimidin-2-yl]pyrrolidine-3-carboxamide] | A′ (A′ = ≥10X) | 5.00 to 6.00 | A′ (A′ = ≥10X) | 5.00 to 6.00
OCc1cn(-c2ncc(OCc3c(Cl)cccc3C(F)(F)F)cn2)cn1 | C′ (C′ = <5X) | > 6.00 | C′ (C′ = <5X) | > 6.00
Cn1cnc(-c2ccc(OCc3c(Cl)cccc3Cl)cc2)c1 [4-[4-[(2,6-dichlorophenyl)methoxy]phenyl]-1-methyl-imidazole] | A′ (A′ = ≥10X) | 5.00 to 6.00 | A′ (A′ = ≥10X) | 5.00 to 6.00
OCc1cn(-c2ccc(OCc3c(Cl)cccc3Cl)cc2)cn1 [[1-[4-[(2,6-dichlorophenyl)methoxy]phenyl]imidazol-4-yl]methanol] | A′ (A′ = ≥10X) | > 6.00 | A′ (A′ = ≥10X) | 5.00 to 6.00
OC1CN(c2ncc(OCc3c(Cl)cccc3Cl)cn2)C1 [1-[5-[(2,6-dichlorophenyl)methoxy]pyrimidin-2-yl]azetidin-3-ol] | A′ (A′ = ≥10X) | 5.00 to 6.00 | A′ (A′ = ≥10X) | 5.00 to 6.00
NC1(CO)CCN(c2ncc(OCc3c(Cl)cccc3C(F)(F)F)cn2)C1 (stereo not shown) | A′ (A′ = ≥10X) | < 5.00 | B′ (B′ = ≥5X to <10X) | 5.00 to 6.00
CC(C)C1NC(=O)N(c2ccc(OCc3c(Cl)cccc3C(F)(F)F)cc2)C1=O (stereo not shown) | A′ (A′ = ≥10X) | > 6.00 | B′ (B′ = ≥5X to <10X) | 5.00 to 6.00
OCC1CN(c2ncc(OCc3c(Cl)cccc3C3CC3)cn2)CCO1 (stereo not shown) | A′ (A′ = ≥10X) | > 6.00 | A′ (A′ = ≥10X) | > 6.00
Cc1cccc(C(F)(F)F)c1COc1ccc(N2C(=O)NC(C)(C)C2=O)nc1 | A′ (A′ = ≥10X) | 5.00 to 6.00 | B′ (B′ = ≥5X to <10X) | 5.00 to 6.00
Cc1cccc(C(F)(F)F)c1COc1ccc(-n2ncc(CO)n2)nc1 | A′ (A′ = ≥10X) | > 6.00 | A′ (A′ = ≥10X) | > 6.00
O=C1CCN(c2ncc(OCc3c(Cl)cccc3C(F)(F)F)cn2)C(=O)N1 | C′ (C′ = <5X) | 5.00 to 6.00 | – | < 5.00
OCc1nc(-c2ncc(OCc3c(Cl)cccc3Cl)cn2)co1 [[4-[5-[(2,6-dichlorophenyl)methoxy]pyrimidin-2-yl]oxazol-2-yl]methanol] | A′ (A′ = ≥10X) | 5.00 to 6.00 | A′ (A′ = ≥10X) | 5.00 to 6.00
Cc1cccc(C(F)(F)F)c1COc1cnc(N2CCN(C(N)=O)C(CO)C2)nc1 (stereo not shown) | A′ (A′ = ≥10X) | > 6.00 | A′ (A′ = ≥10X) | > 6.00
Cc1cccc(C(F)(F)F)c1COc1cnc(N2CCC(O)CC2)nc1 [1-[5-[[2-methyl-6-(trifluoromethyl)phenyl]methoxy]pyrimidin-2-yl]piperidin-4-ol] | A′ (A′ = ≥10X) | > 6.00 | A′ (A′ = ≥10X) | > 6.00
O=C(O)C1CCCN(c2ncc(OCc3c(Cl)cccc3C(F)(F)F)cn2)C1 (stereo not shown) [1-[5-[[2-chloro-6-(trifluoromethyl)phenyl]methoxy]pyrimidin-] | C′ (C′ = <5X) | 5.00 to 6.00 | – | > 6.00
FC(F)(F)c1cccc(Cl)c1COc1cnc(N2CCCC3(CCNC3)C2)nc1 (stereo not shown) | B′ (B′ = ≥5X to <10X) | 5.00 to 6.00 | B′ (B′ = ≥5X to <10X) | 5.00 to 6.00
CC1CN(c2ncc(OCc3c(Cl)cccc3Cl)cn2)CCC1O (stereo not shown) [1-[5-[(2,6-dichlorophenyl)methoxy]pyrimidin-2-yl]-3-methyl-piperidin-4-ol] | A′ (A′ = ≥10X) | > 6.00 | A′ (A′ = ≥10X) | > 6.00
Cc1cccc(C(F)(F)F)c1COc1ccc(N2CCOC(CO)C2)nc1 (stereo not shown) | A′ (A′ = ≥10X) | 5.00 to 6.00 | A′ (A′ = ≥10X) | 5.00 to 6.00
CN(C(N)=O)c1ncc(OCc2c(Cl)cccc2Cl)cn1 [1-[5-[(2,6-dichlorophenyl)methoxy]pyrimidin-2-yl]-1-methyl-urea] | A′ (A′ = ≥10X) | 5.00 to 6.00 | A′ (A′ = ≥10X) | 5.00 to 6.00
